# Test results published in patent publication US9988635B2, “Modulation of growth hormone receptor expression and insulin-like growth factor expression” (Antisense Therapeutics Limited, priority 2003, dated 2018).
# Structures can show the parent of a compound that is named as a salt. In the oligonucleotide strings, read from the 5' end, every base follows the letter of its sugar. An asterisk marks phosphorothioate; unmarked linkages are phosphodiester. Other units and linkages are bracketed, terminal groups are in braces. A string of capitals states the bases alone. e = 2'-O-(2-methoxyethyl) (MOE); [5mC] = 5-methylcytosine; d = 2'-deoxy (DNA)
# Tested on: not listed separately
# Experiment: Body weight, body length, organ weights and food intake, 1 week pilot study
# Format: in vivo, mouse
# Details: octreotide group
# Experimental: Saline, antisense, mismatch control and octreotide samples were prepared, and coded for blinding. Animals were given a subcutaneous dose of saline every second day, and mismatch control or antisense with administration on days 0, 2, 4, 6. Animals were given twice daily doses of 25 μg octreotide. Animals were housed 4 per cage, for the duration of one week. They had access to a pre-determined quantity of standard mouse food and water at all times throughout the experiment. They were housed in a quiet, temperature- and humidity-maintained environment for the entirety of the study. At day 0 and before treatment on each day or second day, the animals had their body weight and food intake measured, enabling the correct dose of agent to be administered. The animals were monitored closely for any changes in fur, skin, eye, locomotion or other changes in behavior. No problems were observed. Every second day from day −7 to day 7 body weight and food intake were measured.
# The serum remaining following the insulin-like growth factor-1 assay was isolated and stored at −80° C. The whole liver was removed rapidly for weighing and snap-frozen in labelled aluminum parcels by submersion in liquid-nitrogen. […]
# This confirms published results of others. […] Weight was measured in two ways: weight trend (live animal), and final carcass weight. […]
row,Compound,liver weight (g/total body weight)
1,"C[C@@H](O)[C@@H]1NC(=O)[C@H](CCCCN)NC(=O)[C@@H](Cc2c[nH]c3ccccc23)NC(=O)[C@H](Cc2ccccc2)NC(=O)[C@@H](NC(=O)[C@H](N)Cc2ccccc2)CSSC[C@@H](C(=O)N[C@H](CO)[C@@H](C)O)NC1=O [Octreotide, octreotide, reference compound]",slight increase

# Tested on: not given
# Experiment: not given
# Details: dosed orally; cited from earlier work
row,Compound,"reduce growth hormone production and associated IGF-I sufficiently, % of cases"
1,CC(C)C[C@H]1C(=O)N2CCC[C@H]2[C@]2(O)O[C@](NC(=O)[C@@H]3C=C4c5cccc6[nH]c(Br)c(c56)C[C@H]4N(C)C3)(C(C)C)C(=O)N12 [bromocriptine mesylate],10%
2,C=CCN1C[C@H](C(=O)N(CCCN(C)C)C(=O)NCC)C[C@@H]2c3cccc4[nH]cc(c34)C[C@H]21 [cabergoline],10%

# Tested on: serum IGF-I
# Experiment: Serum IGF-I, 2 week study in mice
# Format: in vivo, mouse
# Details: 30 mg/kg; 2 weeks
# Experimental: A two-week study was done in similar fashion to the one-week study in Example 18, this time using ISIS 227446 at doses of 3, 5, 10, 20 and 30 mg/kg. The mismatch control was given at the same doses. Mice were treated with antisense compound or saline every other day for 14 days.
# P-values were determined by t-test.
row,Compound,effect on serum IGF-I at 30 mg/kg as observed with the mismatch oligonucleotide
1,"TTACCGTATGGTTCCTCACT (chemistry not given here) [ISIS 260120, unrelated negative control oligonucleotide, reference compound]",not observed

# Tested on: mouse growth hormone receptor mRNA
# Experiment: Inhibition of mouse growth hormone receptor mRNA levels in b.END cells, quantitative real-time PCR, incl. dose-response
# Format: cell-based
# Details: averages from three experiments
# Experimental: The mouse brain endothelial cell line b.END was obtained from Dr. Werner Risau at the Max Plank Instititute (Bad Nauheim, Germany). b.END cells were routinely cultured in DMEM, high glucose (Gibco/Life Technologies, Gaithersburg, Md.) supplemented with 10% fetal calf serum (Gibco/Life Technologies, Gaithersburg, Md.). Cells were routinely passaged by trypsinization and dilution when they reached 90% confluence. Cells were seeded into 96-well plates (Falcon-Primaria #3872) at a density of 3000 cells/well for use in RT-PCR analysis.
# When cells reached 65-75% confluency, they were treated with oligonucleotide. For cells grown in 96-well plates, wells were washed once with 100 μL OPTI-MEM™-1 reduced-serum medium (Invitrogen Corporation, Carlsbad, Calif.) and then treated with 130 μL of OPTI-MEM™-1 containing 3.75 μg/mL LIPOFECTIN™ (Invitrogen Corporation, Carlsbad, Calif.) and the desired concentration of oligonucleotide. Cells are treated and data are obtained in triplicate. After 4-7 hours of treatment at 37° C., the medium was replaced with fresh medium. Cells were harvested 16-24 hours after oligonucleotide treatment.
# Total RNA was isolated using an RNEASY 96™ kit and buffers purchased from Qiagen Inc. (Valencia, Calif.) following the manufacturer's recommended procedures. Briefly, for cells grown on 96-well plates, growth medium was removed from the cells and each well was washed with 200 μL cold PBS. 150 μL Buffer RLT was added to each well and the plate vigorously agitated for 20 seconds. 150 μL of 70% ethanol was then added to each well and the contents mixed by pipetting three times up and down. The samples were then transferred to the RNEASY 96™ well plate attached to a QIAVAC™ manifold fitted with a waste collection tray and attached to a vacuum source. Vacuum was applied for 1 minute. 500 μL of Buffer RW1 was added to each well of the RNEASY 96™ plate and incubated for 15 minutes and the vacuum was again applied for 1 minute. An additional 500 μL of Buffer RW1 was added to each well of the RNEASY 96™ plate and the vacuum was applied for 2 minutes. 1 mL of Buffer RPE was then added to each well of the RNEASY 96™ plate and the vacuum applied for a period of 90 seconds. The Buffer RPE wash was then repeated and the vacuum was applied for an additional 3 minutes. The plate was then removed from the QIAVAC™ manifold and blotted dry on paper towels. The plate was then re-attached to the QIAVAC™ manifold fitted with a collection tube rack containing 1.2 mL collection tubes. RNA was then eluted by pipetting 140 μL of RNAse free water into each well, incubating 1 minute, and then applying the vacuum for 3 minutes.
# Quantitation of growth hormone receptor mRNA levels was accomplished by real-time quantitative PCR using the ABI PRISM™ 7600, 7700, or 7900 Sequence Detection System (PE-Applied Biosystems, Foster City, Calif.) according to manufacturer's instructions. This is a closed-tube, non-gel-based, fluorescence detection system which allows high-throughput quantitation of polymerase chain reaction (PCR) products in real-time. As opposed to standard PCR in which amplification products are quantitated after the PCR is completed, products in real-time quantitative PCR are quantitated as they accumulate. This is accomplished by including in the PCR reaction an oligonucleotide probe that anneals specifically between the forward and reverse PCR primers, and contains two fluorescent dyes. A reporter dye (e.g., FAM or JOE, obtained from either PE-Applied Biosystems, Foster City, Calif., Operon Technologies Inc., Alameda, Calif. or Integrated DNA Technologies Inc., Coralville, Iowa) is attached to the 5′ end of the probe and a quencher dye (e.g., TAMRA, obtained from either PE-Applied Biosystems, Foster City, Calif., Operon Technologies Inc., Alameda, Calif. or Integrated DNA Technologies Inc., Coralville, Iowa) is attached to the 3′ end of the probe. […]
row,Compound,% INHIB of mouse growth hormone receptor mRNA levels
1,227503 (antisense eT*eA*e[5mC]*e[5mC]*eT*dG*dA*dG*dA*d[5mC]*d[5mC]*d[5mC]*d[5mC]*dA*dG*eT*eT*e[5mC]*eA*eT) [compound 227503],24%
2,227504 (antisense eT*eA*e[5mC]*e[5mC]*eT*dG*dA*dG*dA*d[5mC]*d[5mC]*d[5mC]*d[5mC]*dG*d[5mC]*eG*e[5mC]*eA*eG*e[5mC]) [compound 227504],34%
3,227505 (antisense eT*eA*e[5mC]*e[5mC]*eT*dG*dA*dG*dA*d[5mC]*d[5mC]*d[5mC]*dA*d[5mC]*dA*eA*eG*e[5mC]*eG*eG) [compound 227505],39%
4,227506 (antisense e[5mC]*e[5mC]*eT*e[5mC]*e[5mC]*dA*dG*dT*dA*d[5mC]*d[5mC]*dT*d[5mC]*dG*dG*eA*eG*eT*eT*eT) [compound 227506],69%
5,227507 (antisense eG*eT*e[5mC]*e[5mC]*eT*dT*dG*d[5mC]*dT*d[5mC]*d[5mC]*dA*dG*dG*dT*eT*eA*eG*e[5mC]*eA) [compound 227507],89%
6,227508 (antisense eT*eT*e[5mC]*e[5mC]*eA*d[5mC]*dT*d[5mC]*dA*d[5mC]*d[5mC]*d[5mC]*d[5mC]*dA*dG*eT*eT*e[5mC]*eA*eT) [compound 227508],51%
7,227509 (antisense eG*e[5mC]*eA*eG*eT*dT*d[5mC]*dT*dA*dT*d[5mC]*dA*dG*dA*dA*e[5mC]*eT*eT*eT*eG) [compound 227509],82%
8,227510 (antisense e[5mC]*eT*e[5mC]*e[5mC]*eA*dG*dA*d[5mC]*dG*dT*dG*dA*d[5mC]*d[5mC]*d[5mC]*eG*eA*e[5mC]*eT*e[5mC]) [compound 227510],64%
9,227511 (antisense e[5mC]*e[5mC]*eA*e[5mC]*eG*d[5mC]*dA*d[5mC]*d[5mC]*d[5mC]*dA*d[5mC]*dA*dA*dG*e[5mC]*eG*eG*eA*eT) [compound 227511],71%
10,227512 (antisense eT*eA*eA*e[5mC]*e[5mC]*dT*dA*dT*dG*dG*dT*dG*dA*d[5mC]*dT*eA*eT*eG*eT*e[5mC]) [compound 227512],36%
11,227513 (antisense eT*eA*e[5mC]*e[5mC]*eT*dG*dA*dG*dA*d[5mC]*d[5mC]*dT*dG*d[5mC]*dA*eA*eG*eA*e[5mC]*eA) [compound 227513],40%
12,227514 (antisense eA*eT*eG*e[5mC]*eT*d[5mC]*dA*d[5mC]*dG*dT*d[5mC]*dA*dG*d[5mC]*dT*eA*eT*eT*eG*eG) [compound 227514],43%
13,227515 (antisense eA*eA*eA*eT*eT*d[5mC]*dT*dT*dA*d[5mC]*dT*dT*dG*dT*d[5mC]*e[5mC]*e[5mC]*e[5mC]*eA*eG) [compound 227515],37%
14,227516 (antisense eT*eT*eG*eG*e[5mC]*dT*dT*dT*d[5mC]*d[5mC]*d[5mC]*dT*dG*dG*dA*eG*eG*eT*eT*e[5mC]) [compound 227516],57%
15,227517 (antisense e[5mC]*eT*eT*e[5mC]*eA*d[5mC]*dT*dA*dA*d[5mC]*d[5mC]*dT*dT*dG*d[5mC]*eA*eG*e[5mC]*eT*eT) [compound 227517],63%
16,227518 (antisense e[5mC]*eA*e[5mC]*eG*eG*d[5mC]*dT*dT*dA*d[5mC]*d[5mC]*dT*dA*dT*dT*eT*e[5mC]*eG*eT*e[5mC]) [compound 227518],6%
17,227519 (antisense eT*e[5mC]*eA*e[5mC]*eA*d[5mC]*d[5mC]*dT*dA*d[5mC]*d[5mC]*dT*dT*dT*dG*e[5mC]*eT*eG*e[5mC]*eT) [compound 227519],44%
18,227520 (antisense e[5mC]*eA*eT*e[5mC]*eT*dT*dA*dA*dT*d[5mC]*d[5mC]*dT*dT*dG*dG*eA*eA*eA*e[5mC]*eA) [compound 227520],42%
